Measured values as given in patent publication US20240335547A1, “MODIFIED CHOLIC ACID CONJUGATES” (priority 2022, published 2024).
Converted amounts (≈) assume the structure as drawn.

Legend:
[1] = test system: HFF (human foreskin fibroblast) cells; test: Cytotoxicity in human primary cell cultures (Trypan Blue Staining); format: cell-based; conditions: HFF cells, 48 hours, Trypan Blue Staining
Method: (1) HFF (human foreskin fibroblast) cells (2×105) were seeded with 2 ml of DMEM medium supplemented with 10% FBS in each well of two 12-well tissue culture plates. (2) Cells were cultured for 3 days. CSA-44 was added to test for cell toxicity. Eleven concentrations were tested: 40 μg/ml, 30 μg/ml, […], 17.5 μg/ml, 15 μg/ml, 12.5 μg/ml, 10 μg/ml, 7.5 μg/ml, 5 μg/ml, 2.5 μg/ml, and 1 μg/ml. Samples with concentration of 0 μg/ml were used as the control. Each concentration was tested in duplicates with two wells. (3) Cells were cultured for 48 hours with CSA-44. Trypan Blue Staining was used to determine the numbers of living and dead cells on a hemocytometer. Percentages of living and dead cells in each sample were calculated.
(1) HFF cells (2×105) were seeded with 2 ml of DMEM medium supplemented with 10% FBS in each well of two 12-well tissue culture plates. (2) Cells were cultured for 3 days. CMA Conjugate was added to test for cell toxicity. Eleven concentrations were tested. They were 100 μg/ml, 80 μg/ml, 60 μg/ml, 50 μg/ml, 40 μg/ml, 30 μg/ml, 25 μg/ml, 20 μg/ml, 15 μg/ml, 10 μg/ml, and 5 μg/ml. Samples with concentration of 0 μg/ml were used as the control. Each concentration was tested in duplicates with two wells. (3) Cells were cultured for 48 hours with CMA Conjugate. […] Percentages of living and dead cells in each sample were calculated.

human coronavirus 229E = test: Therapeutic activity against human coronavirus 229E in HFF cells; format: cell-based; conditions: added 24 hours post infection, cell viability
Method: (1) HFF cells (5×104) were seeded with 1 ml of DMEM media supplemented with 10% FBS in each well of four 24-well tissue culture plates. (2) Cell were cultured for 3 days until HFF cells in each well attained 90% confluency (media was changed 1 day before infection). 10 μl of the 10-time diluted original solution of coronavirus, about 1×10^5 PFU were added into each well. Infection was allowed to proceed overnight. (3) The media was changed 24 hours post infection. CSA-44 was added to test their anti-viral effects. Ten different concentrations of the drug were tested. They were 15 μg/ml, 10 μg/ml, 9 μg/ml, 8 μg/ml, 7 μg/ml, 6 μg/ml, 5 μg/ml, 4 μg/ml, 3 μg/ml, and 2 μg/ml with 0 μg/ml as the control. Each concentration has 12 wells for test. Cells were cultured for two weeks, and cell viability was quantified. CSA-44 was effective in inhibiting viral replication and growth. The values of EC50 (where EC is the concentration of the active that gives 50% of the maximal response) of CSA-44 is identified as 4 μg/ml.
(1) HFF cells (5×104) were seeded with 1 ml of DMEM media supplemented with 10% FBS in each well of four 24-well tissue culture plates. (2) Cells were cultured for 3 days until HFF cells in each well attained 90% confluency (media was changed 1 day before infection). Ten μl of the 10-time diluted original solution of coronavirus, about 1×10^5 PFU, were added into each well. Infection was allowed to proceed overnight. (3) The media was changed 24 hours post infection. Different concentrations of CSA-44 were added to test their anti-viral effects. Each concentration has 12 wells for test. Cells were cultured in the presence of CSA-44 for […] and cell viability was quantified.
(1) HFF cells (5×104) were seeded with 1 ml of DMEM media supplemented with 10% FBS in each well of four 24-well tissue culture plates. (2) Cells were cultured for 3 days until HFF cells in each well attained 90% confluency (media was changed 1 day before infection). […] Cells were cultured for two weeks, and cell viability was quantified. […]

Structure (SMILES): CCCCCCCCOC(=O)CC[C@@H](C)[C@H]1CC[C@H]2[C@@H]3[C@H](OC(=O)CCN)C[C@@H]4C[C@H](OC(=O)CCN)CC[C@]4(C)[C@H]3C[C@H](OC(=O)CCN)[C@]12C [CSA-44]
- CC50 [1]: around 15 μg/ml
- EC50 (human coronavirus 229E; cells cultured for three weeks): ~4 µg/mL (≈ 5.45 µM)
- EC50 (human coronavirus 229E; cells cultured for two weeks): 4 µg/mL (≈ 5.45 µM)
